Source: paper PMC6563076 (2019)

Key:
[1] = test system: F10T (DNA, hairpin, hexaethylene glycol (HEG) linker between 10 and 11) TATAGCTATATATAGCTATA; assay: FRET melting; details: 10 mM KCl, 90 mM LiCl; 1 μM ligand, 200 nM DNA, 10 mM Li cacodylate; ΔT1/2 used as ΔTm
[2] = test system: FmycT (DNA, G4) TTGAGGGTGGGTAGGGTGGGTAA; assay: FRET melting; details: 1 mM KCl, 99 mM LiCl; 1 μM ligand, 200 nM DNA, 10 mM Li cacodylate; ΔT1/2 used as ΔTm
[3] = test system: F21T (DNA, G4) GGGTTAGGGTTAGGGTTAGGG; assay: FRET melting; details: 1 μM ligand, 200 nM DNA, 10 mM Li cacodylate, ΔT1/2 used as ΔTm
[4] = test system: telo22 (DNA, G4) AGGGTTAGGGTTAGGGTTAGGG; assay: CD titration; details: Na+ (100 mM sodium phosphate); pH 7.4; conformational change similar to telo23
[5] = test system: telo23 (DNA, G4) TAGGGTTAGGGTTAGGGTTAGGG; assay: 1H NMR; details: Na+ (25 mM sodium phosphate, 70 mM NaCl); pH 7.0, 298 K, 175 µM DNA, 2 equivalents ligand; imino signals lost
[6] = test system: telo23 (DNA, G4) TAGGGTTAGGGTTAGGGTTAGGG; assay: CD titration; details: pH 7.4, 20 °C, 4.22 µM DNA

A ΔTm [1] of 0.1 ± 0.1 °C, a ΔTm [2] of 5.1 ± 1.4 °C and a ΔTm ([3]; 10 mM KCl, 90 mM LiCl) of 9.7 ± 0.5 °C were found for `C[n+]1ccc(-c2ccc3c(c2)/C(=C2/CCc4ccc(-c5cc[n+](C)cc5)cc42)CC3)cc1` in this work. The ΔTm ([3]; 100 mM NaCl) was 5.4 ± 1.0 °C.

With `C[n+]1ccc(-c2ccc3c(c2)/C(=C2\CCc4ccc(-c5cc[n+](C)cc5)cc42)CC3)cc1` the binding [4] was “yes”, the ΔTm [1] was 0.8±0.2 °C and the ΔTm [2] was 15.8±0.8 °C. The binding [5] was “yes”, the binding ([6]; K+ (100 mM potassium phosphate), no conformational change, ICD seen) was “yes” and the binding ([6]; Na+ (100 mM sodium phosphate), ligand unfolds the G4) was “yes”. For the same compound, the ΔTm ([3]; 10 mM KCl, 90 mM LiCl) was 21.4±0.3 °C and the ΔTm ([3]; 100 mM NaCl) was 11.8±0.6 °C.
